Test results from patent US20090264401A1, “SUBSTITUTED PYRIMIDIN-5-CARBOXAMIDES 281” (AstraZeneca AB, priority 2008, published 2009).

Biological target: T1, human 11βHSD1 enzyme (Homo sapiens, UniProt P28845)
T1 construct: baculovirus expressed N terminal 6-His tagged full length human 11βHSD1 enzyme; 6-His (N); made in house
Assay: 11βHSD1 cortisone to cortisol conversion, competitive HTRF assay
Assay type: biochemical
Conditions: human 11-βHSD; test concentration of 30 μM of compound
Method: The evaluation of compounds described herein was carried out using a baculovirus expressed N terminal 6-His tagged full length human 11βHSD1 enzyme(*1). The enzyme was purified from a detergent solubilised cell lysate, using a copper chelate column. Inhibitors of 11βHSD1 reduce the conversion of cortisone to cortisol, which is identified by an increase in signal, in the above assay.
Compounds to be tested were dissolved in dimethyl sulphoxide (DMSO) to 10 mM and diluted further in assay buffer containing 1% DMSO to 10 fold the final assay concentration. Diluted compounds were then plated into black 384 well plates (Matrix, Hudson N.H., USA).
Fluorescence at 665 nm and 620 nm was measured and the 665 nm:620 nm ratio calculated using an Envision plate reader.

T1 sequence (P28845 whole entry): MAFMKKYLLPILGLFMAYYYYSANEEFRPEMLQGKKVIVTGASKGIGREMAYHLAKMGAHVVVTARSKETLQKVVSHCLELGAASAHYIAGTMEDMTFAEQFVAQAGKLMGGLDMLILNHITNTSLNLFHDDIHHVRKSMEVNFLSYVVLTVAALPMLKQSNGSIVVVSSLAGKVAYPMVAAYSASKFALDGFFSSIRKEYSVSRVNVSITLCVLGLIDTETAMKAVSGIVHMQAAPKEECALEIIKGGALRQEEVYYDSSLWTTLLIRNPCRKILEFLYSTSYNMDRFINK

Structure (SMILES)	inhibition at 30 µM [%]
O=C(N[C@H]1C2CC3CC1C[C@@](O)(C3)C2)c1cnc(NCCN2CCOCC2)nc1C1CC1 [Example 72, 4-cyclopropyl-N-[(2r,5s)-5-hydroxyadamantan-2-yl]-2-[(2-morpholin-4-ylethyl)amino]pyrimidine-5-carboxamide]	91.6
O=C(N[C@H]1C2CC3CC1C[C@@](O)(C3)C2)c1cnc(NC2CCCC2)nc1C1CCC1 [Example 102, 4-cyclobutyl-2-(cyclopentylamino)-N-[(2r,5s)-5-hydroxyadamantan-2-yl]pyrimidine-5-carboxamide]	93.8
O=C(N[C@H]1C2CC3CC1C[C@@](O)(C3)C2)c1cnc(NC2COC2)nc1C1CCC1 [Example 104, 4-cyclobutyl-N-[(2r,5s)-5-hydroxyadamantan-2-yl]-2-(oxetan-3-ylamino)pyrimidine-5-carboxamide]	99.3
CN(C)c1ncc(C(=O)N[C@H]2C3CC4CC2C[C@@](O)(C4)C3)c(C2CC2)n1 [Example 61, 4-cyclopropyl-2-(dimethylamino)-N-[(2r,5s)-5-hydroxyadamantan-2-yl]pyrimidine-5-carboxamide]	105
Cc1nc(N2CCOCC2)ncc1C(=O)NC1C2CC3CC(C2)CC1C3 (centres unmarked) [Example 15, N-(2-adamantyl)-4-methyl-2-morpholin-4-ylpyrimidine-5-carboxamide]	95.4
COCCN1CCN(c2ncc(C(=O)N[C@H]3C4CC5CC3C[C@](O)(C5)C4)c(C3CCCC3)n2)CC1 [Example 125, 4-cyclopentyl-N-[(2r,5s)-5-hydroxyadamantan-2-yl]-2-[4-(2-methoxyethyl)piperazin-1-yl]pyrimidine-5-carboxamide]	95
CC(C)Oc1ncc(C(=O)N[C@H]2C3CC4CC2C[C@@](O)(C4)C3)c(C2CC2)n1 [Example 76, 4-cyclopropyl-N-[(2r,5s)-5-hydroxyadamantan-2-yl]-2-isopropoxypyrimidine-5-carboxamide]	96.1
CN(C)c1ncc(C(=O)N[C@H]2C3CC4CC2C[C@@](O)(C4)C3)c(C2CCC2)n1 [Example 86, 4-cyclobutyl-2-(dimethylamino)-N-[(2r,5s)-5-hydroxyadamantan-2-yl]pyrimidine-5-carboxamide]	97
CNc1ncc(C(=O)N[C@H]2C3CC4CC2C[C@@](O)(C4)C3)c(C2CCCC2)n1 [Example 118, 4-cyclopentyl-N-[(2r,5s)-5-hydroxyadamantan-2-yl]-2-methylaminopyrimidine-5-carboxamide]	93.7

The remaining lines, values ahead:

inhibition at 30 µM [%]	Structure (SMILES)
103	CC(C)Oc1nc(N2C[C@@H](C)O[C@@H](C)C2)ncc1C(=O)N[C@H]1C2CC3CC1C[C@@](O)(C3)C2 [Example 214, 2-[(2R,6S)-2,6-dimethylmorpholin-4-yl]-N-[(2r,5s)-5-hydroxytricyclo[3.3.1.13,7]dec-2-yl]-4-(1-methylethoxy)pyrimidine-5-carboxamide]
96.5	Cc1ncc(C(=O)N[C@H]2C3CC4CC2C[C@@](O)(C4)C3)c(C2CCCO2)n1 (some centres unmarked) [Example 158, N-[(2r,5s)-5-hydroxyadamantan-2-yl]-2-methyl-4-(oxolan-2-yl)pyrimidine-5-carboxamide]
95.3	CNc1ncc(C(=O)N[C@H]2C3CC4CC2C[C@@](O)(C4)C3)c([C@@H]2CCCO2)n1 [Example 178, N-[(2r,5s)-5-hydroxyadamantan-2-yl]-2-methylamino-4-[(2S)-oxolan-2-yl]pyrimidine-5-carboxamide]
97.2	C[C@@H]1CN(c2ncc(C(=O)N[C@H]3C4CC5CC3C[C@@](O)(C5)C4)c([C@H]3CCCO3)n2)C[C@H](C)N1 [Example 172, 2-[(3S,5R)-3,5-dimethylpiperazin-1-yl]-N-[(2r,5s)-5-hydroxyadamantan-2-yl]-4-[(2R)-oxolan-2-yl]pyrimidine-5-carboxamide]
99.4	CCOc1nc(N2C[C@@H](C)O[C@@H](C)C2)ncc1C(=O)N[C@H]1C2CC3CC1C[C@@](O)(C3)C2 [Example 209, 2-[(2S,6R)-2,6-dimethylmorpholin-4-yl]-4-ethoxy-N-[(2r,5s)-5-hydroxyadamantan-2-yl]pyrimidine-5-carboxamide]
